Measured values from patent US20210353579A1, “HIGH PENETRATION COMPOSITIONS AND USES THEREOF” (Techfields Pharma Co., Ltd., priority 2006, published 2021).
Values after ≈ are worked out from the molar mass of the structure shown.

What was measured:
human skin tissue = conditions: pH 7.4; for In vitro penetration rate (apparent flux), parent compounds: human, 20 %
[1] = Plasma levels after transdermal administration to hairless mice; format: in vivo; conditions: for t, time to peak plasma level after parent compound: parent compound administered (time when taken orally); for Peak plasma concentration after parent compound: parent compound administered, hairless mice; for Peak plasma concentration of parent compound after prodrug compound / t, time to peak plasma level of parent compound after prodrug compound: mouse, in vivo
Method: Tested compounds (20% solution or suspension in 1 mL isopropanol) are administered transdermally to the skin of intact hairless mice. The plasma levels of the parent compounds are determined by HPLC.

[2] = Solubility in water / aqueous solubility of HPPs and parent drugs; conditions: for solubility: water; for Solubility in water: product as prepared in Example 1
mice = test: Analgesic activity, acetic acid writhing; format: in vivo; conditions: 100 mg/kg transdermally, 30 min before acetic acid
Method: The prodrug compounds are administered either transdermally or orally. The parent compounds are administered orally. The number of writhing that occurred when mice are administered the acetic acid solution are counted, and the rate of inhibition based on the control group which was not pretreated with any test compounds is calculated. […] The A group is the control group.

rats = test: Antipyretic activity, E. coli suspension as pyrogen; format: in vivo; conditions: 100 mg/kg transdermally; in °C (unit assumed)
Method: Rats are administered with sterilized E. coli suspension as a pyrogen. Each group of rats are administered with a prodrug compounds or parent compounds at a dosage specified below. The prodrug compounds are administered either orally or transdermally. The parent compounds are administered orally.

rat = conditions: rats
Method: The acute toxicity of the prodrug compounds and parent compounds are measured by LD50 of rat.
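Wherever LD50 of HPP is given: acute toxicity in rats expressed as LD50, determined for both prodrugs and their parent compounds.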

In vitro penetration rate (apparent flux), parent compounds (human skin tissue) [μg/cm^2/h] | t, time to peak plasma level after parent compound [1] [h] | Peak plasma concentration after parent compound [1] [mg/L] | solubility [2] [µg/mL] | SMILES | also measured
30 | 2 to 4 | 10 | 100 (≈ 0.406 mM) | CC(C(=O)O)c1ccc(CC2CCCC2=O)cc1 (stereo not drawn) [Loxoprofen, loxoprofen, reference compound] | 
10 | 2 to 4 | 0.1 | < 100 | Cc1ccc(Cl)c(Nc2ccccc2C(=O)O)c1Cl [Meclofenamic acid, meclofenamic acid, reference compound] | 
<1 | 2 to 4 | 0.1 | < 100 | Cc1cnc(NC(=O)C2=C(O)c3ccccc3S(=O)(=O)N2C)s1 [Meloxicam, meloxicam, reference compound] | 
30 | 2 to 4 | 10 | 100 (≈ 0.341 mM) | O=C(O)CCc1nc(-c2ccccc2)c(-c2ccccc2)o1 [Oxaprozin, oxaprozin, reference compound] | 
30 | 2 to 4 | 10 | 100 (≈ 0.397 mM) | CC(C(=O)O)c1ccc(N2CC=CC2)c(Cl)c1 (stereo not drawn) [Pirprofen, pirprofen, reference compound] | 
30 | 2 to 4 | 10 | 100 (≈ 0.384 mM) | CC(C(=O)O)c1ccc(C(=O)c2cccs2)cc1 (stereo not drawn) [Suprofen, suprofen, reference compound] | 
30 | 2 to 4 | 10 | 100 (≈ 0.384 mM) | CC(C(=O)O)c1ccc(C(=O)c2ccccc2)s1 (stereo not drawn) [Tiaprofenic acid, tiaprofenic acid, reference compound] | 
30 | 2 to 4 | 10 | 100 (≈ 0.335 mM) | CC(C(=O)O)c1ccc2c(c1)CC(=O)c1ccccc1S2 (stereo not drawn) [Zaltoprofen, zaltoprofen, reference compound] | 
 |  |  | > 400000 | CCN(CC)CCOC(=O)c1ccccc1Nc1cccc(Cl)c1C [diethylaminoethyl 2-[(3-chloro-2-methylphenyl)amino]benzoate] | 
 |  |  | < 100 | Cc1c(Cl)cccc1Nc1ccccc1C(=O)O [tolfenamic acid] | 

The next lines start with the compound.

SMILES | In vitro penetration rate (apparent flux), parent compounds (human skin tissue) [μg/cm^2/h] | t, time to peak plasma level after parent compound [1] [h] | Peak plasma concentration after parent compound [1] [mg/L] | solubility [2] [µg/mL] | also measured
C=CCOc1ccc(CC(=O)O)cc1Cl [Alclofenac, alclofenac, reference compound] | 10 | 1 to 2 | 0.1 | 100 (≈ 0.441 mM) | 
O=C(O)COc1nn(Cc2ccccc2)c2ccccc12 [Bendazac, bendazac, reference compound] |  | 1 to 2 | 0.1 | 100 (≈ 0.354 mM) | 
Cc1ccc2c(c1)CC(=O)c1cc(C(C)C(=O)O)ccc1O2 (stereo not drawn) [Bermoprofen, bermoprofen, reference compound] | 40 | 2 to 4 | 10 | 100 (≈ 0.337 mM) | 
Cc1c(Nc2ncccc2C(=O)O)cccc1C(F)(F)F [Flunixin, flunixin, reference compound] | 10 | 2 to 4 | 0.1 | < 100 | 
CC(C(=O)O)c1ccc(-c2ccccc2)c(F)c1 (stereo not drawn) [Flurbiprofen, flurbiprofen, reference compound] | 30 | 2 to 4 | 10 | 200 (≈ 0.819 mM) | 
CC(C)Cc1ccc(CC(=O)O)cc1 [Ibufenac] |  |  |  | 100 (≈ 0.52 mM) | 
Cc1cc(NC(=O)C2=C(O)c3ccccc3S(=O)(=O)N2C)no1 [Isoxicam, isoxicam, reference compound] | <1 | 2 to 4 | 0.1 | < 100 | 
O=C(c1ccccc1)c1ccc2n1CCC2C(=O)O (stereo not drawn) [Ketorolac, ketorolac, reference compound] | 30 | 2 to 4 | 10 | 100 (≈ 0.392 mM) | 
CN1C(C(=O)Nc2ccccn2)=C(O)c2sc(Cl)cc2S1(=O)=O [Lornoxicam, lornoxicam, reference compound] | <1 | 2 to 4 | 0.1 | < 100 | 
CC(=O)O.CCN(CC)CCNC(=O)CCc1nc(-c2ccccc2)c(-c2ccccc2)o1 [N-diethylaminoethyl 4,5-Diphenyl-2-oxazole propionamide.AcOH] |  |  |  |  | Solubility in water [2]: 400000 µg/mL
CC(=O)O.CN(C)CCNC(=O)Cc1ccccc1Nc1c(Cl)cccc1Cl [N-dimethylaminoethyl 2[(2,6-dichlorophenyl)amino] benzene acetamide.AcOH] |  |  |  |  | Solubility in water [2]: 450000 µg/mL
CC(=O)O.CN(C)CCSC(=O)Cc1ccccc1Nc1c(Cl)cccc1Cl [S-dimethylaminoethyl 2[(2,6-dichlorophenyl)amino] benzene acetate.AcOH] |  |  |  |  | Solubility in water [2]: 410000 µg/mL
CC(=O)O.CCN(CC)CCOC(=O)CCc1nc(-c2ccccc2)c(-c2ccccc2)o1 [diethylaminoethyl 4,5-Diphenyl-2-oxazole propionate.AcOH] |  |  |  |  | In vitro penetration rate (apparent flux), prodrug compounds (human skin tissue): 4000 μg/cm^2/h; % (rate of writhing inhibition) (mice): 55%; No. of Writhing (mice): 15.7; Peak plasma concentration of parent compound after prodrug compound [1]: 2000 mg/L; t, time to peak plasma level of parent compound after prodrug compound [1]: 50 min; body temperature, t = 0 min (rats): 37.24 ± 0.07; body temperature, t = 90 min (rats): 36.82 ± 0.06; body temperature, t = 180 min (rats): 36.70 ± 0.05; body temperature, t = 270 min (rats): 36.67 ± 0.08
CC(=O)O.CCN(CC)CCOC(=O)CC(O)c1ccc(-c2ccc(Cl)cc2)o1 (stereo not drawn) [diethylaminoethyl 5-(4-chlorophenyl)-beta-hydroxy-2-furanpropionate.AcOH] |  |  |  |  | In vitro penetration rate (apparent flux), prodrug compounds (human skin tissue): 4100 μg/cm^2/h; % (rate of writhing inhibition) (mice): 55%; No. of Writhing (mice): 15.6; Peak plasma concentration of parent compound after prodrug compound [1]: 2000 mg/L; t, time to peak plasma level of parent compound after prodrug compound [1]: 50 min; body temperature, t = 0 min (rats): 37.29 ± 0.07; body temperature, t = 90 min (rats): 36.82 ± 0.06; body temperature, t = 180 min (rats): 36.60 ± 0.05; body temperature, t = 270 min (rats): 36.67 ± 0.08
CC(=O)O.CCN(CC)CCOC(=O)C1CCn2c(C(=O)c3ccccc3)ccc21 (stereo not drawn) [diethylaminoethyl 5-benzoyl-2,3-dihydro-1H-pyrrolizine-1-carboxylate.AcOH] |  |  |  |  | In vitro penetration rate (apparent flux), prodrug compounds (human skin tissue): 3800 μg/cm^2/h; % (rate of writhing inhibition) (mice): 54%; No. of Writhing (mice): 16.1; Peak plasma concentration of parent compound after prodrug compound [1]: 2000 mg/L; t, time to peak plasma level of parent compound after prodrug compound [1]: 50 min; body temperature, t = 0 min (rats): 37.22 ± 0.06; body temperature, t = 90 min (rats): 36.65 ± 0.06; body temperature, t = 180 min (rats): 36.58 ± 0.08; body temperature, t = 270 min (rats): 36.51 ± 0.07
CC(=O)O.CCN(CC)CCOC(=O)C(C)c1ccc(C(=O)c2ccccc2)s1 (stereo not drawn) [diethylaminoethyl 5-benzoyl-α-methyl-2-thiopheneacetate.AcOH] |  |  |  |  | In vitro penetration rate (apparent flux), prodrug compounds (human skin tissue): 4200 μg/cm^2/h; % (rate of writhing inhibition) (mice): 62%; No. of Writhing (mice): 13.2; Peak plasma concentration of parent compound after prodrug compound [1]: 2000 mg/L; t, time to peak plasma level of parent compound after prodrug compound [1]: 50 min; body temperature, t = 0 min (rats): 37.26 ± 0.06; body temperature, t = 90 min (rats): 36.65 ± 0.06; body temperature, t = 180 min (rats): 36.58 ± 0.08; body temperature, t = 270 min (rats): 36.36 ± 0.07
CC(=O)O.CCN(CC)CCOC(=O)Cc1ccc(CC(C)C)cc1 [diethylaminoethyl p-isobutylphenylacetate.AcOH] |  |  |  |  | Solubility of HPP ([2]; medium not given): >250000 µg/mL
CC(=O)O.CC(C)Cc1ccc(C(C)C(=O)OCCN(C)C)cc1 (stereo not drawn) [dimethylaminoethyl 2-(ρ-isobutylphenyl) propionate.AcOH] |  |  |  |  | LD50 of HPP (rat): 1600 mg/kg
CC(=O)Oc1ccccc1C(=O)OCCN(C)C [dimethylaminoethyl acetylsalicylate.AcOH] |  |  |  |  | LD50 of HPP (rat): 2200 mg/kg
